Measurements from PubChem BioAssay (NCI).
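GI50 is the concentration that inhibits growth by half. TGI marks complete inhibition of growth.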

Legend:
Assay in all cases: NCI anticancer screen, dose series, 384-well format
[1] = test system: 786-0 renal
[2] = test system: A498 renal
[3] = test system: A549 NSCLC
[4] = test system: ACHN renal
[5] = test system: BT-549 breast
[6] = test system: CAKI-1 renal
[7] = test system: CCRF-CEM leukemia
[8] = test system: COLO 205 colon
[9] = test system: DU-145 prostate
[10] = test system: EKVX NSCLC
[11] = test system: HCC-2998 colon
[12] = test system: HCT-116 colon
[13] = test system: HCT-15 colon
[14] = test system: HL-60(TB) leukemia
[15] = test system: HOP-62 NSCLC
[16] = test system: HOP-92 NSCLC
[17] = test system: HS 578T breast
[18] = test system: IGROV1 ovarian
[19] = test system: K-562 leukemia
[20] = test system: LOX IMVI melanoma
[21] = test system: M14 melanoma
[22] = test system: MALME-3M melanoma
[23] = test system: MCF7 breast
[24] = test system: MDA-MB-231 breast
[25] = test system: MDA-MB-435 melanoma
[26] = test system: MDA-MB-468 breast
[27] = test system: MOLT-4 leukemia
[28] = test system: NCI-H226 lung

Q: Which results are given for N#CCCNc1nonc1-c1nc2ccccc2n1CC(=O)c1ccc(NC(=O)[C@@H](N)CCCCN)cc1?
A: GI50 [1]: 36.3 nM; TGI [1]: 422 nM; GI50 [2]: 30.6 nM; TGI [2]: > 100000 nM; GI50 [3]: 36.9 nM; TGI [3]: > 100000 nM; GI50 [4]: 63.6 nM; TGI [4]: > 100000 nM; GI50 [5]: 22.2 nM; TGI [5]: 54 nM; GI50 [6]: 41.1 nM; TGI [6]: > 100000 nM; GI50 [7]: 18.3 nM; TGI [7]: 33.1 nM; GI50 [8]: 27.8 nM; TGI [8]: 78.3 nM; GI50 [9]: 37.5 nM; TGI [9]: 640 nM; GI50 [10]: 54.5 nM; TGI [10]: > 100000 nM; GI50 [11]: 24.9 nM; TGI [11]: 74.1 nM; GI50 [12]: 33.3 nM; TGI [12]: 192 nM; GI50 [13]: 30 nM; TGI [13]: 103 nM; GI50 [14]: 20.7 nM; TGI [14]: 35.8 nM; GI50 [15]: 38.8 nM; TGI [15]: 1020 nM; GI50 [16]: 51.5 nM; TGI [16]: 884 nM; GI50 [17]: 17.4 nM; TGI [17]: 36.9 nM; GI50 [18]: 43.5 nM; TGI [18]: > 100000 nM; GI50 [19]: 18.7 nM; TGI [19]: 38.8 nM; GI50 [20]: 46 nM; TGI [20]: 407 nM; GI50 [21]: 19.9 nM; TGI [21]: 46.5 nM; GI50 [22]: 34.8 nM; TGI [22]: 163 nM; GI50 [23]: 39.4 nM; TGI [23]: 3270 nM; GI50 [24]: 135 nM; TGI [24]: 78600 nM; GI50 [25]: 19.4 nM; TGI [25]: 38.3 nM; GI50 [26]: 19.9 nM; TGI [26]: 46.1 nM; GI50 [27]: 16.8 nM; TGI [27]: 31.1 nM; GI50 [28]: 90.3 nM
